Measurements as given in publication PMC5341858, “Molecular regulation of apoptotic machinery and lipid metabolism by mTORC1/mTORC2 dual inhibitors in preclinical models of HER2+/PIK3CAmut breast cancer” (Oncotarget, 2016).

Tests used:
[1] = target: T1, ABL1-nonphosphorylated (Homo sapiens, UniProt P00519); assay: KINOMEscan binding assay; settings: 1000 nM, percent control relative to vehicle
T1 construct: purchased DiscoveRx KINOMEscan
Text: (§1) IC50 values were generated using Graphpad PRISM 5 software.

[2] = target: T2, AKT2 (Homo sapiens, UniProt P31751); assay: KINOMEscan binding assay; settings: 1000 nM, percent control relative to vehicle
T2 construct: purchased DiscoveRx KINOMEscan
Text: as §1

[3] = target: T3, AURKA (Homo sapiens, UniProt O14965); assay: KINOMEscan binding assay; settings: 1000 nM, percent control relative to vehicle
T3 construct: purchased DiscoveRx KINOMEscan
T3 sequence (O14965 whole entry): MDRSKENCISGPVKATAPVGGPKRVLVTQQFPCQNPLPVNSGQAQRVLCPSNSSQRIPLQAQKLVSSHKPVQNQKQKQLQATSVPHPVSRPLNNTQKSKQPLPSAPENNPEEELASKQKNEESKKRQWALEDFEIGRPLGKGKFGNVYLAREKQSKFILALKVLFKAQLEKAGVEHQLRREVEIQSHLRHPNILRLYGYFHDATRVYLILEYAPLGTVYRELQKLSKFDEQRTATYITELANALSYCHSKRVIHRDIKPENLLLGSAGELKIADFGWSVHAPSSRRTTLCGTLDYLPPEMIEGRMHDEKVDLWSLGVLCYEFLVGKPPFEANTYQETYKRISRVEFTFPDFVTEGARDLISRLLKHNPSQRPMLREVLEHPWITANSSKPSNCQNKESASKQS
Text: as §1

[4] = target: T4, BRAF (Homo sapiens, UniProt P15056); assay: KINOMEscan binding assay; settings: 1000 nM, percent control relative to vehicle
T4 construct: purchased DiscoveRx KINOMEscan
Text: as §1

[5] = target: T5, BTK (Homo sapiens, UniProt Q06187); assay: KINOMEscan binding assay; settings: 1000 nM, percent control relative to vehicle
T5 construct: purchased DiscoveRx KINOMEscan
Text: as §1

[6] = target: T6, CDK11 (Homo sapiens, UniProt Q9BWU1); assay: KINOMEscan binding assay; settings: 1000 nM, percent control relative to vehicle
T6 construct: purchased DiscoveRx KINOMEscan
Text: as §1

[7] = target: T7, CDK3 (Homo sapiens, UniProt Q00526); assay: KINOMEscan binding assay; settings: 1000 nM, percent control relative to vehicle
T7 construct: purchased DiscoveRx KINOMEscan
Text: as §1

[8] = target: T8, DYRK1B (Homo sapiens, UniProt Q9Y463); assay: KINOMEscan binding assay; settings: 1000 nM, percent control relative to vehicle
T8 construct: purchased DiscoveRx KINOMEscan
Text: as §1

[9] = target: T9, EGFR (Homo sapiens, UniProt P00533); assay: KINOMEscan binding assay; settings: 1000 nM, percent control relative to vehicle
T9 construct: purchased DiscoveRx KINOMEscan
T9 sequence (P00533 25-1210): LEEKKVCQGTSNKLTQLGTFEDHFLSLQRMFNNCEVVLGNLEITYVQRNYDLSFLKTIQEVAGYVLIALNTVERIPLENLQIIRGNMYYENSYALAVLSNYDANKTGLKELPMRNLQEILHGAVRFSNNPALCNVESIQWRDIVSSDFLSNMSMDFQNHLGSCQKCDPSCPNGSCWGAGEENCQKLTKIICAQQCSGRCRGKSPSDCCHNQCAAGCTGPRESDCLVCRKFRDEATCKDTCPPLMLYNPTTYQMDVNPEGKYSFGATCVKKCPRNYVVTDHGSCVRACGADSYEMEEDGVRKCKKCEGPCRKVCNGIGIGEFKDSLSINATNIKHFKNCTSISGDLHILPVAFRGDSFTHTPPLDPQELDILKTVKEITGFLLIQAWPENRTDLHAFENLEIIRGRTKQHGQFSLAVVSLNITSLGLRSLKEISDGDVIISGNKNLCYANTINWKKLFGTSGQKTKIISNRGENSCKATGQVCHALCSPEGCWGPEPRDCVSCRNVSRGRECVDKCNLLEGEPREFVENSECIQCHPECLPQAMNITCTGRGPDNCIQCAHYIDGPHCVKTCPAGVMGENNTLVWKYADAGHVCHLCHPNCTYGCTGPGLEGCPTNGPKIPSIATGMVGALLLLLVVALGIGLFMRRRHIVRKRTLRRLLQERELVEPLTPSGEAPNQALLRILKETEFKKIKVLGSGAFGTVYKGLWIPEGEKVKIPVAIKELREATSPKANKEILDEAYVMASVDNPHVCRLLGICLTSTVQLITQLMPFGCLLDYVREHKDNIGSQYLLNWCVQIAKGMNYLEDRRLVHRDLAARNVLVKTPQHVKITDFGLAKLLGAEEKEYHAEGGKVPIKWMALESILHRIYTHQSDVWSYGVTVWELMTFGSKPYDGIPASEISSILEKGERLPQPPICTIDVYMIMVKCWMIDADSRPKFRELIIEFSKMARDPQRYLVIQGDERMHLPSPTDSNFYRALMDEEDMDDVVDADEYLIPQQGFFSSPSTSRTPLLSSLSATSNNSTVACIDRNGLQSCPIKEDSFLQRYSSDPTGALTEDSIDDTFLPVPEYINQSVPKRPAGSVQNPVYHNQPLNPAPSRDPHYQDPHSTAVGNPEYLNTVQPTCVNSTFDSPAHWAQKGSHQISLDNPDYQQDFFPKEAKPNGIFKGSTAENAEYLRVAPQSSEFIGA
Text: as §1

[10] = target: T10, ERBB2 (Homo sapiens, UniProt P04626); assay: KINOMEscan binding assay; settings: 1000 nM, percent control relative to vehicle
T10 construct: purchased DiscoveRx KINOMEscan
Text: as §1

[11] = target: T11, ERBB4 (Homo sapiens, UniProt Q15303); assay: KINOMEscan binding assay; settings: 1000 nM, percent control relative to vehicle
T11 construct: purchased DiscoveRx KINOMEscan
Text: as §1

[12] = target: T12, FLT3 (Homo sapiens, UniProt P36888); assay: KINOMEscan binding assay; settings: 1000 nM, percent control relative to vehicle
T12 construct: purchased DiscoveRx KINOMEscan
Text: as §1

[13] = target: T13, GSK3B (Homo sapiens, UniProt P49841); assay: KINOMEscan binding assay; settings: 1000 nM, percent control relative to vehicle
T13 construct: purchased DiscoveRx KINOMEscan
T13 sequence (P49841 whole entry): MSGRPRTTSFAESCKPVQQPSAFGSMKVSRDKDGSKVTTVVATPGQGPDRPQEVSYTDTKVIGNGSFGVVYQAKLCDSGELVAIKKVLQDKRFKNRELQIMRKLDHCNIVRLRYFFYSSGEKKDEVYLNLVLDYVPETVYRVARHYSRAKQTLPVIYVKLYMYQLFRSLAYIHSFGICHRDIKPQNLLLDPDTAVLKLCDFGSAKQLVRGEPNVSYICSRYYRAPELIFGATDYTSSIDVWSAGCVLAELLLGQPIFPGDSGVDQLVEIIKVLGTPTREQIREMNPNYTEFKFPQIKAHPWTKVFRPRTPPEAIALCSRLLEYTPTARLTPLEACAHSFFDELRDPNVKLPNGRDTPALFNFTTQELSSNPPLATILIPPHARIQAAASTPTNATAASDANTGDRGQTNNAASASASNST
Text: as §1

[14] = target: T14, IGF1R (Homo sapiens, UniProt P08069); assay: KINOMEscan binding assay; settings: 1000 nM, percent control relative to vehicle
T14 construct: purchased DiscoveRx KINOMEscan
T14 sequence (P08069 31-1367): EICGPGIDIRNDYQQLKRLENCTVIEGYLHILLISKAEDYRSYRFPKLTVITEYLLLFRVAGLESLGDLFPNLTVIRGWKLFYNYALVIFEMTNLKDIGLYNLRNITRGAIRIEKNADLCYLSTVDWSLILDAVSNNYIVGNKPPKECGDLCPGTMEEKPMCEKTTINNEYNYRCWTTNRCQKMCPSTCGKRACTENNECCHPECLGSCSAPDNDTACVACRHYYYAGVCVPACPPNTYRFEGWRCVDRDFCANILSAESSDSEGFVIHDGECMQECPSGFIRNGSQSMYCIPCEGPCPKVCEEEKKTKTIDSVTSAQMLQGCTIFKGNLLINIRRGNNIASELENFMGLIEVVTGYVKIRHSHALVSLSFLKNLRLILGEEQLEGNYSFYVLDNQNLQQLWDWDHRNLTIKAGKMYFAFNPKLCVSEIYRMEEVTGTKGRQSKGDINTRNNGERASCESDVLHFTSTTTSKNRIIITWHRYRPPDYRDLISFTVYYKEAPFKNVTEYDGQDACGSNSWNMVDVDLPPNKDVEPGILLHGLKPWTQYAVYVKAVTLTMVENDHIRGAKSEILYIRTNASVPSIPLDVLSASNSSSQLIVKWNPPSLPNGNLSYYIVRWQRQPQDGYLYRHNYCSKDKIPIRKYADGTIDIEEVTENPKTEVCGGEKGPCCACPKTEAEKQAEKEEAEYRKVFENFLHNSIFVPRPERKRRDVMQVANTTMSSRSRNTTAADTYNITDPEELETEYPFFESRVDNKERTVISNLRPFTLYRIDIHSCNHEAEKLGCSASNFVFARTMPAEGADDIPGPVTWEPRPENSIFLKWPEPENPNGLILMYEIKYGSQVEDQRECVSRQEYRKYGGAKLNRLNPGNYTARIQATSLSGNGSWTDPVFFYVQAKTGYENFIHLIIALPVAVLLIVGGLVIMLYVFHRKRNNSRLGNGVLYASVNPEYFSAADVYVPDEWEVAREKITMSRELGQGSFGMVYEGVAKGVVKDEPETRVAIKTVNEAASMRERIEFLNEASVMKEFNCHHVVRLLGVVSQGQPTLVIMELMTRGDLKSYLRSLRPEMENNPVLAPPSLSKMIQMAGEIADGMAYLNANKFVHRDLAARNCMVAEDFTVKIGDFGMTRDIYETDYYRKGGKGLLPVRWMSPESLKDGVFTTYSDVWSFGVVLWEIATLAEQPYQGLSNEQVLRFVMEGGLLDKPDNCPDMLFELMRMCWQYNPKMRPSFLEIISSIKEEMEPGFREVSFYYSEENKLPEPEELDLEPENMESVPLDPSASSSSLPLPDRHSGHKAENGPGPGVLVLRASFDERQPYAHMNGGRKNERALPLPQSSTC
Text: as §1

[15] = target: T15, IKK-alpha (Homo sapiens, UniProt O15111); assay: KINOMEscan binding assay; settings: 1000 nM, percent control relative to vehicle
T15 construct: purchased DiscoveRx KINOMEscan
Text: as §1

[16] = target: T16, IKK-beta (Homo sapiens, UniProt O14920); assay: KINOMEscan binding assay; settings: 1000 nM, percent control relative to vehicle
T16 construct: purchased DiscoveRx KINOMEscan
Text: as §1

[17] = target: T17, JAK2 (JH1domain-catalytic) (Homo sapiens, UniProt O60674); assay: KINOMEscan binding assay; settings: 1000 nM, percent control relative to vehicle
T17 construct: JAK2 (JH1domain-catalytic); purchased DiscoveRx KINOMEscan
T17 sequence (O60674 840-1132 limits assumed): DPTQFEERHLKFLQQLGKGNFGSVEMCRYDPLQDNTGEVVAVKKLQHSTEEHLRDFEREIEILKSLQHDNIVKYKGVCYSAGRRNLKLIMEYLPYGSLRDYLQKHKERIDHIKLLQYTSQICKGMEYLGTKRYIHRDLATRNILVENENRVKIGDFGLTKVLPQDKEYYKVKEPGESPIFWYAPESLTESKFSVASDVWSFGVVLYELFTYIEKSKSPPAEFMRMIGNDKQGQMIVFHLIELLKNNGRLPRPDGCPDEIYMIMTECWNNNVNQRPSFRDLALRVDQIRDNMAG
Text: as §1

[18] = target: T18, JNK2 (Homo sapiens, UniProt P45984); assay: KINOMEscan binding assay; settings: 1000 nM, percent control relative to vehicle
T18 construct: purchased DiscoveRx KINOMEscan
Text: as §1

[19] = target: T19, JNK3 (Homo sapiens, UniProt P53779); assay: KINOMEscan binding assay; settings: 1000 nM, percent control relative to vehicle
T19 construct: purchased DiscoveRx KINOMEscan
Text: as §1

[20] = target: T20, KIT (V559D, T670I) (Homo sapiens, UniProt P10721, T670I/V559D); assay: KINOMEscan binding assay; settings: 1000 nM, percent control relative to vehicle
T20 construct: purchased DiscoveRx KINOMEscan
Text: as §1

[21] = target: T21, MARK3 (Homo sapiens, UniProt P27448); assay: KINOMEscan binding assay; settings: 1000 nM, percent control relative to vehicle
T21 construct: purchased DiscoveRx KINOMEscan
Text: as §1

[22] = target: T22, MKNK1 (Homo sapiens, UniProt Q9BUB5); assay: KINOMEscan binding assay; settings: 1000 nM, percent control relative to vehicle
T22 construct: purchased DiscoveRx KINOMEscan
Text: as §1

[23] = target: T23, PAK2 (Homo sapiens, UniProt Q13177); assay: KINOMEscan binding assay; settings: 1000 nM, percent control relative to vehicle
T23 construct: purchased DiscoveRx KINOMEscan
Text: as §1

[24] = target: T24, PDGFRB (Homo sapiens, UniProt P09619); assay: KINOMEscan binding assay; settings: 1000 nM, percent control relative to vehicle
T24 construct: purchased DiscoveRx KINOMEscan
Text: as §1

[25] = target: T25, PIK3C2B (Homo sapiens, UniProt O00750); assay: KINOMEscan binding assay; settings: 1000 nM, percent control relative to vehicle
T25 construct: purchased DiscoveRx KINOMEscan
Text: as §1

[26] = target: PIK3CA (Homo sapiens, UniProt P42336); assay: KINOMEscan binding assay
Chain of PIK3CA (P42336 whole entry): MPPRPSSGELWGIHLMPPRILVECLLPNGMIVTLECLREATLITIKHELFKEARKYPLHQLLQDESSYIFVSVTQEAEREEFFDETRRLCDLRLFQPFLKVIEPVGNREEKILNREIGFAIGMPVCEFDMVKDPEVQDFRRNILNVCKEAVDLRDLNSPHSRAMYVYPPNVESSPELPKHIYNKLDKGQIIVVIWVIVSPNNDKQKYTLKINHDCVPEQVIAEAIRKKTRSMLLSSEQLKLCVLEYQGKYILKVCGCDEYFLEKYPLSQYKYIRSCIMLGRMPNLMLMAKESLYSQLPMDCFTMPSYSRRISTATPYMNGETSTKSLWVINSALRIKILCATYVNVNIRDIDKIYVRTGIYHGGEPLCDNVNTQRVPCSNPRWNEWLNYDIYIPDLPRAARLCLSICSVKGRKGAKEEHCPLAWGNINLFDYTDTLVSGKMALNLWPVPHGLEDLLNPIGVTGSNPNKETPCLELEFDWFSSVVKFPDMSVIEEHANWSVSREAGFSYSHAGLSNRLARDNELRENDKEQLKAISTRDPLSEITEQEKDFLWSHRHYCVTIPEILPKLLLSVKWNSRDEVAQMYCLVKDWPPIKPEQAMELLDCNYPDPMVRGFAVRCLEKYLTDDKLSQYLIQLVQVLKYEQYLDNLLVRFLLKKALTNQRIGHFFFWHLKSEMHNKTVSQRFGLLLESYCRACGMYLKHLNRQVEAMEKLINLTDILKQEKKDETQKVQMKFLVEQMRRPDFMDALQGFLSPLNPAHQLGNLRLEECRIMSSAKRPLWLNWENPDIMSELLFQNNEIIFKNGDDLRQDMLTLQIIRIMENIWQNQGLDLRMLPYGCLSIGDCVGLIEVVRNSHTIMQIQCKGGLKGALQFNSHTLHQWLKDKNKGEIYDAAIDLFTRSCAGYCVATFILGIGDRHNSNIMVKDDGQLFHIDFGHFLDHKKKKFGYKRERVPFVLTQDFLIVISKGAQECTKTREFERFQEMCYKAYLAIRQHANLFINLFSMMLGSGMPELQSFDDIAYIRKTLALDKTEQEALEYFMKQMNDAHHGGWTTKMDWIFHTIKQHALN
Text: as §1

[27] = target: PIK3CB (Homo sapiens, UniProt P42338); assay: KINOMEscan binding assay
Text: as §1

[28] = target: T26, PIM1 (Homo sapiens, UniProt P11309); assay: KINOMEscan binding assay; settings: 1000 nM, percent control relative to vehicle
T26 construct: purchased DiscoveRx KINOMEscan
T26 sequence (P11309 whole entry): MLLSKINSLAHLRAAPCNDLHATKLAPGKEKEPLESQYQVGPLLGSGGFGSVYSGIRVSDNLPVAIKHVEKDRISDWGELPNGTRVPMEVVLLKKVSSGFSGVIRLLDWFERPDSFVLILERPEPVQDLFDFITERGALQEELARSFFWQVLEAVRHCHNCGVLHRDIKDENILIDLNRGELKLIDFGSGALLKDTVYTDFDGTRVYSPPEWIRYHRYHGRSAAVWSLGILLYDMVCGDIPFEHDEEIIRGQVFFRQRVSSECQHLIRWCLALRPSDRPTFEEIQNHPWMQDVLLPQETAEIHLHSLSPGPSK
Text: as §1

[29] = target: T27, PRKCE (Homo sapiens, UniProt Q02156); assay: KINOMEscan binding assay; settings: 1000 nM, percent control relative to vehicle
T27 construct: purchased DiscoveRx KINOMEscan
Text: as §1

[30] = target: T28, RAF1 (Homo sapiens, UniProt P04049); assay: KINOMEscan binding assay; settings: 1000 nM, percent control relative to vehicle
T28 construct: purchased DiscoveRx KINOMEscan
Text: as §1

[31] = target: T29, RET (Homo sapiens, UniProt P07949); assay: KINOMEscan binding assay; settings: 1000 nM, percent control relative to vehicle
T29 construct: purchased DiscoveRx KINOMEscan
Text: as §1

[32] = target: T30, TIE2 (Homo sapiens, UniProt Q02763); assay: KINOMEscan binding assay; settings: 1000 nM, percent control relative to vehicle
T30 construct: purchased DiscoveRx KINOMEscan
Text: as §1

[33] = system: mTORC1 substrates P-S6K1(T389), P-S6(S235/6), P-4EBP1(T70) and mTORC2 substrate P-AKT(S473) in 786-O, U87MG and MDA-MB-453 cells; assay: Immunoblotting of mTORC1 and mTORC2 biomarkers in tumor cells; assay type: cell-based
Protocol: For standard assay of inhibitor effects on cellular biomarker expression, cells were plated at pre-determined density in 6-well or 12-well culture plates for overnight, treated with inhibitors for the indicated doses and times. Cells were lysed in NuPAGE-LDS lysis buffer (Invitrogen) and immunoblotted with antibodies including P-S6K1(T389), S6, P-4EBP1(T70), 4EBP1, P-GSK3(S21/9), GSK3, cyclin D1, Raptor, Rictor, P-ACL(S455), ACL, cleaved-PARP (Cell Signaling Technology); P-S6(S235/6), AKT(S473), AKT, Bim (Abcam-Epitomics); c-Myc (Santa Cruz); Mcl-1 (Affinity); CPT1A (Proteintech); β-actin and GAPDH (Bioworld).

CNC(=O)c1cccc(-c2ccc3c(N4C5CCC4COC5)nc(N4CCOC[C@@H]4C)nc3n2)c1 [MTI-31]
% Control [1]: 52%
% Control [2]: 94%
% Control [3]: 97%
% Control [4]: 80%
% Control [5]: 68%
% Control [6]: 100%
% Control [7]: 99%
% Control [8]: 100%
% Control [9]: 94%
% Control [10]: 97%
% Control [11]: 100%
% Control [12]: 100%
% Control [13]: 56%
% Control [14]: 100%
% Control [15]: 82%
% Control [16]: 69%
% Control [17]: 88%
% Control [18]: 96%
% Control [19]: 96%
% Control [20]: 100%
% Control [21]: 71%
% Control [22]: 90%
% Control [23]: 94%
% Control [24]: 100%
% Control [25]: 100%
Kd [26]: > 1000 nM
% Control ([26]; 1000 nM, percent control relative to vehicle): 100%
Kd [27]: > 1000 nM
% Control [28]: 100%
% Control [29]: 91%
% Control [30]: 82%
% Control [31]: 100%
% Control [32]: 100%
IC50 ([33]; read-out: concentration achieving 50% inhibition of mTORC1 and mTORC2 substrates, 786-O, U87MG and MDA-MB-453 cells, 6 h treatment): ≤ 120 nM
EC50 ([33]; several relevant tumor models (cells), read-out: EC50, inhibition of mTORC1/mTORC2 signaling): ≤ 120 nM
